Laboratory results taken from US12152016B2, “Aryl hydrocarbon receptor modulators and uses thereof” (Beth Israel Deaconess Medical Center, Inc., priority 2018, dated 2024).
“Also recorded” adds a separate entry of the source.

What was measured:
[1] = target: T1, AhR (Mus musculus, UniProt P30561); assay: AhR nuclear translocation assay, mouse Hepa-1c1c7; format: cell-based; conditions: mouse Hepa-1c1c7, 10 μM, 90 minutes
T1 construct: endogenous in cells; host or cells: Hepa-1c1c7 (mouse hepatoma cell line)
Experimental: (§1) Mouse Hepa-1c1c7 or human HepG2 cells were seeded in 8 well chamber slides followed by 24 hours incubation in tryptophan deficient media (HBSS with Ca^2+ and Mg^2+, 10% heat inactivated FBS, 1× non-essential amino acids, 1× sodium pyruvate, 4.5 g/L glucose). Cells were treated with vehicle control (DMSO) or 10 μM ITE, compound 108, or compound 109 for 90 minutes in tryptophan deficient media. Following treatment, cells were fixed in 4% formaldehyde and processed according to standard immunofluorescence staining protocol. Primary anti-AhR antibody was applied at 1:100 dilution (Enzo, BML-SA210) and Alexa488 conjugated secondary antibody was applied at 1:500 dilution (Cell Signaling, 4412S). Actin was stained using Alexa 568 conjugated Phalloidin (Fisher). Samples were mounted in anti-fade mounting medium supplemented with DAPI for nuclear staining and imaged with confocal microscopy (Leica SP5×MP, 63× oil lens).

[2] = target: T2, aryl hydrocarbon receptor (AHR) (Homo sapiens, UniProt P35869); assay: XRE-driven luciferase reporter assay, human HepG2
T2 sequence (P35869 11-848): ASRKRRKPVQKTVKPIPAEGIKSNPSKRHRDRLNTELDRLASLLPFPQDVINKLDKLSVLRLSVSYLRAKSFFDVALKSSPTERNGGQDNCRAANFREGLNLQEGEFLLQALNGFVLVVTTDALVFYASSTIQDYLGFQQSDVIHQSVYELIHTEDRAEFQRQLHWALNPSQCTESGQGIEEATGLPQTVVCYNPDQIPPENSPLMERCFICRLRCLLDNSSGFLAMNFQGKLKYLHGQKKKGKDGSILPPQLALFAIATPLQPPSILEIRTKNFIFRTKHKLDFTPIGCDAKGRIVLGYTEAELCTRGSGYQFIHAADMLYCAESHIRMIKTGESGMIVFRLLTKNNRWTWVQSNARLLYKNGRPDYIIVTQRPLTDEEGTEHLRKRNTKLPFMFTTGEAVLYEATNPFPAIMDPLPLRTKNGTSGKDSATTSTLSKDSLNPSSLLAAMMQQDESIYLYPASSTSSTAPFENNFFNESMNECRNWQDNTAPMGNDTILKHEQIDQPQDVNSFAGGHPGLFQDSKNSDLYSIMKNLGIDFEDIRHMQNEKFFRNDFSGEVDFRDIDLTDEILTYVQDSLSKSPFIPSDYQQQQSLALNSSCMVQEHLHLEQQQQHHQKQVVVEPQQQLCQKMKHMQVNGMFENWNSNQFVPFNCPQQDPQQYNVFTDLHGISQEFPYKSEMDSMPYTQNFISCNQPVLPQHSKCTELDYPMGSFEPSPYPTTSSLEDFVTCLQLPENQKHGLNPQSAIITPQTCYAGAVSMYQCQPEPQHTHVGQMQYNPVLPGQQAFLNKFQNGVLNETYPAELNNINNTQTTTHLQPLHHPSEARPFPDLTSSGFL
Experimental: The Human HepG2 cell line is a human liver cancer cell line, and provide a relevant in vitro AHR activity model. These Hep2G cells have been modified to stably express an AHR-responsive (XRE) firefly luciferase reporter gene to give Hep2G-XRE cells. The expression of luciferase should primarily reflect AHR-dependent transcription controlled by XRE.
Transfected cells were treated with AhR agonist (10^−5-10^−12) for 4.5 h in full medium. Cells were lysed and luciferase was activated using the Luciferase Assay System (Promega). Luminescence signals were measured with a FluroStar Omega microplate reader. Luminescence signals of compound treated groups were normalized to vehicle (DMSO) treated control and plotted as concentration dependent fold changes.

[3] = tested on: cyp1a1; assay: cyp1a1 expression by q-PCR in mouse Hepa-1c1c7 cells; format: cell-based; conditions: mouse Hepa-1c1c7, 10 nM-10 μM, 8 hours
Experimental: RNA was extracted using TRIzol (Invitrogen) following manufacturer's instructions and 0.1 μg of RNA was converted to cDNA using a high capacity cDNA reverse transcription kit (Invitrogen). qPCR was performed on the Applied Biosystems 7900 using TaqMan® Universal PCR Master Mix (Life Technologies) with TaqMan® (Life Technologies) primers against cyp1a1 (Mm00487218_m1), AhR (Mm00478932_m1), IL-22 (Mm01226722_g1), Foxp3 (Mm00475162_m1), IL-10 (Mm01288386_m1), TNF-a (Mm00443258_m1), IFN-r (Mm01168134_m1). The fold increase from experimental groups to control was calculated using the delta-delta CT method with 18S (Mm00446186_m1) as an internal reference gene. In vitro and in vivo activation of the AhR singling pathway was confirmed by q-PCR characterization of cyp1a1. For in vitro induction, mouse Hepa-1c1c7 were cultured to confluence in 24 well plates in full DMEM followed by 24 hours incubation in tryptophan deficient media. Cells were treated with vehicle control (DMSO), ITE, compound 108, or compound 109 (10 nM-10 μM) for 8 hours in tryptophan deficient media. At the end of treatment, cells were lysed in TRIzol for RNA isolation. To monitor in vivo induction, (0.1-1000 μg) compound 109 was given per mouse via oral gavage in 100 μl of vehicle (1% HPMC, 1% polysorbate 80). After 12 hours, liver, colon, spleen and leukocytes from blood were collected and lysed in TRIzol (Invitrogen) for q-PCR analysis.

[4] = target: T3, AhR (Homo sapiens, UniProt P35869); assay: AhR nuclear translocation assay, human HepG2; format: cell-based; conditions: human HepG2, 10 μM, 90 minutes
T3 construct: endogenous in cells; host or cells: HepG2 (human liver cancer cell line)
T3 sequence (P35869 11-848): T2 sequence (P35869 11-848)
Experimental: as §1

[5] = tested on: AHR-dependent transcription of the CYP1A1 gene; assay: CYP1A1 induction in mouse macrophages; format: cell-based
Experimental: Mouse macrophages were also used to test AHR-dependent transcription of the CYP1A1 gene in vivo. Finally, the activity of exemplary compounds of Formula (I) described herein was tested in the human […] cell line U937. The U937 cell line is derived from a patient with diffuse histiocytic lymphoma. Tables 2-4 summarize structure-activity relationship data collected for exemplary, non-limiting compounds of Formula (I) described herein.

[6] = target: T4, aryl hydrocarbon receptor (AHR) (Mus musculus, UniProt P30561); assay: XRE-driven luciferase reporter assay, mouse Hepa1c1c7; format: cell-based
T4 construct: Transfection was performed with 150 ng XRE-luciferase plasmid (Promega); endogenous in cells; host or cells: Hepa-1c1c7 (mouse hepatoma cell line)
T4 sequence (P30561 10-805 limits assumed): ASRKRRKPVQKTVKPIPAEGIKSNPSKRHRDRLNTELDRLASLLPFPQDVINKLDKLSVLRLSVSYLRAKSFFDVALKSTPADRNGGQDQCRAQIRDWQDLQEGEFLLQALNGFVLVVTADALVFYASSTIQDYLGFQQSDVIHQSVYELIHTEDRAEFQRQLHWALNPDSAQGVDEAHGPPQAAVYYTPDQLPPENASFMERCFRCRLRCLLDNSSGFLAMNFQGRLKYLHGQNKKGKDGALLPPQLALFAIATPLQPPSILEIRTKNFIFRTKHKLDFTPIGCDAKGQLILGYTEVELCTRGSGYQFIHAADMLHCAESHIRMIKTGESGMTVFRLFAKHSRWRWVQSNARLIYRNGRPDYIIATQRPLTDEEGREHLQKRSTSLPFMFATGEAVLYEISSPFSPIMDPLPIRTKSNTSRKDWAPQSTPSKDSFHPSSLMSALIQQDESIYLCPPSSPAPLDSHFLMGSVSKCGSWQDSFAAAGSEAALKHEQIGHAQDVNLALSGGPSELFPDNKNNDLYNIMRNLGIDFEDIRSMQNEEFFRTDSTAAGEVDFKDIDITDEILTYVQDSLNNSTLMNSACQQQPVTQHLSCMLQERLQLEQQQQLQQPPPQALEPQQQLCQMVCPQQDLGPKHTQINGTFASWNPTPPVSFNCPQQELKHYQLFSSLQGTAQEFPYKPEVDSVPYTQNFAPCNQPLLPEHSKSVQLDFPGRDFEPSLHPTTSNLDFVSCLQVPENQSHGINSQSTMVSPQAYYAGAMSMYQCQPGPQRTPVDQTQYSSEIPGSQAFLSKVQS
T4 sequence (P53762 whole entry partner): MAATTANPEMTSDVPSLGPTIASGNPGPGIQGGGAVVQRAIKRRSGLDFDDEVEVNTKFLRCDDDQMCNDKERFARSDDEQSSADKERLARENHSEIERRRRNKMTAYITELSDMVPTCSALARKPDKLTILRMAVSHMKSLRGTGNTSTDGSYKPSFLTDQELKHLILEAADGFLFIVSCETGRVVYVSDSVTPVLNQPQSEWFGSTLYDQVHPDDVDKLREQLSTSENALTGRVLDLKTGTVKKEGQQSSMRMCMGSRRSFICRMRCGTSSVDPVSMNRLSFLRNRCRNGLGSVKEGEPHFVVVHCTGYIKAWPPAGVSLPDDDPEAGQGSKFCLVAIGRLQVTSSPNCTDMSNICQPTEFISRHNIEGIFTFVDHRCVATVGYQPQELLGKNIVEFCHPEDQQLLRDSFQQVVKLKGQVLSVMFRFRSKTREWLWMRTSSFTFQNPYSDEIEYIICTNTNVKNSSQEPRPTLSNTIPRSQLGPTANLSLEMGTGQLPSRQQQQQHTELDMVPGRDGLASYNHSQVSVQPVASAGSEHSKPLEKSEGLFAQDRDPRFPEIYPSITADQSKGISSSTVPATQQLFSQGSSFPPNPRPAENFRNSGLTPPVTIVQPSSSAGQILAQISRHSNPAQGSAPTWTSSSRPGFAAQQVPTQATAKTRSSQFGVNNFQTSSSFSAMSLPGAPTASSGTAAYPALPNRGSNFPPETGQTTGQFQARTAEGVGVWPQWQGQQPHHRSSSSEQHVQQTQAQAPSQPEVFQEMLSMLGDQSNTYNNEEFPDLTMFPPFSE
Experimental: Human HepG2 or mouse Hepa-1c1c7 cells were seeded in 96 well opaque plates at 75,000 cells per well in full medium (DMEM+10% FBS) for 24 hours. Transfection was performed with 150 ng XRE-luciferase plasmid (Promega) with 4:1 Fugene to DNA ratio for 18 hours in Opti-MEM. Transfected cells were treated with AhR agonist (10^−5-10^−12) for 4.5 h in full medium. Cells were lysed and luciferase was activated using the Luciferase Assay System (Promega). Luminescence signals were measured with a FluroStar Omega microplate reader. Luminescence signals of compound treated groups were normalized to vehicle (DMSO) treated control and plotted as concentration dependent fold changes.

T1 sequence (P30561 10-805 limits assumed): as the sequence (P30561 10-805 limits assumed) above
T1 sequence (P53762 whole entry partner): as the sequence (P53762 whole entry partner) above

N#Cc1cccc(C(=O)c2c[nH]c3ccccc23)n1 [Compound 108, 6-(1H-indole-3-carbonyl)pyridine-2-carbonitrile]
AhR nuclear translocation [1]: localized in the nucleus; also recorded: rapid nuclear enrichment of AhR
XRE luciferase Emax (fold) ([2]; Human HepG2, fold over vehicle): 74 fold
EC50 ([2]; XRE luciferase EC50, Human HepG2, least square curve fitting, >10,000 = does not reach 50% of Emax of ITE at 10 μM (highest concentration tested)): 2.8 nM
cyp1a1 expression (qPCR) [3]: induced AhR-dependent cyp1a1 expression; also recorded: dose dependent induction of cyp1a1 expression
AhR nuclear translocation [4]: localized in the nucleus; also recorded: rapid nuclear enrichment of AhR
CYP1A1 induction (% of ITE ± SEM) ([5]; 50 nM): 33 ± 3 % of ITE
CYP1A1 induction (% of ITE ± SEM) ([5]; 5 μM): 94 ± 24 % of ITE
EC50 [6]: 94 nM
XRE luciferase Emax (fold) [6]: 86 fold
